Key:
Type in all cases: in vivo
STEME = assay: Herbicidal post-emergence action against STEME; conditions: visual rating 3 to 4 weeks after treatment
Procedure: (§1) Seeds of monocotyledonous and dicotyledonous weed and crop plants are placed into sandy loam in wood fiber pots or in plastic pots, covered with soil and cultivated in a greenhouse, including during the vegetation period outdoors outside of the greenhouse, under good growth conditions. 2-3 weeks after sowing, the test plants are treated at the one- to three-leaf stage. The test compounds, formulated as wettable powders (WP) or liquid (EC) are, in various dosages with a water application rate of 300 I/ha (converted), with added wetting agent (0.2 to 0.3%), sprayed onto the plants and the surface of the soil. 3 to 4 weeks after the treatment of the test plants, the effect of the preparations is rated visually in comparison to untreated controls (herbicidal effect in percent (%): 100% effect=plants have died, 0% effect=like control plants).
(§2) If it is additionally to be tested as to whether safeners can improve the plant compatibility of test substances in the case of crop plants, the following options are used for applying the safener: • seeds of the crop plants are, before sowing, dressed with the safener substance (the amount of safener is stated in percent, based on the weight of the seed) • before the application of the test substances, the crop plants are sprayed with the safener at a certain application rate per hectare (usually 1 day before the application of the test substances) • the safener is applied together with the test substance as a tank mix (the amount of safener is stated in g/ha or as a ratio, based on the herbicide).
(§3) By comparing the effect of the test substances on crop plants without or with safener treatment, it is possible to assess the effect of the safener substance.

LAMPU = assay: Herbicidal post-emergence action against LAMPU; conditions: visual rating 3 to 4 weeks after treatment
Procedure: as §1, §3

AVEFA = assay: Herbicidal post-emergence action against AVEFA; conditions: visual rating 3 to 4 weeks after treatment
Procedure: as §1, §3

VERHE = assay: Herbicidal post-emergence action against VERHE; conditions: visual rating 3 to 4 weeks after treatment
Procedure: as §1, §3

MATIN = assay: Herbicidal post-emergence action against MATIN; conditions: visual rating 3 to 4 weeks after treatment
Procedure: as §1, §2, §3

summer wheat = assay: Post-emergence damage to crop plant (safener test)
Procedure: as §1, with “plants). […]” for “plants).”

For Cc1nn(C)c(O)c1C(=O)c1ccc(C(F)(F)F)cc1S(C)(=O)=O [pyrasulfotole], the “Activity against STEME” value (STEME; dosage 12.5 g of a.i./ha) was 60%, the “Activity against LAMPU” value (LAMPU; dosage 12.5 g of a.i./ha) was 80% and the “Activity against AVEFA” value (AVEFA; dosage 12.5 g of a.i./ha) was 40%. For the same compound, the “Activity against VERHE” value (VERHE; dosage 12.5 g of a.i./ha) was 40%, the “Activity against MATIN” value (MATIN; dosage 12.5 g of a.i./ha) was 70% and the “Damage to summer wheat” value (summer wheat; dosage 12.5 g of a.i./ha) was 20%.

For CCOC(=O)C1=NN(c2ccc(Cl)cc2Cl)C(C)(C(=O)OCC)C1 (centres unmarked) [mefenpyr-diethyl], the “Activity against STEME” value (STEME; dosage 9.4 g of a.i./ha) was 0% and the “Activity against MATIN” value (MATIN; dosage 9.4 g of a.i./ha) was 0%.

In the case of COCc1cnc(C2=NC(C)(C(C)C)C(=O)N2)c(C(=O)O)c1.N (centres unmarked) [imazamox-ammonium], the “Activity against AVEFA” value (AVEFA; dosage 25 g of a.i./ha) is reported as 60%.

In the case of CCOC(=O)C(Cl)Cc1cc(-n2nc(C)n(C(F)F)c2=O)c(F)cc1Cl (centres unmarked) [carfentrazone-ethyl], the “Activity against LAMPU” value (LAMPU; dosage 25 g of a.i./ha) is reported as 10%.

For COc1cc(OC)n2nc(NS(=O)(=O)c3c(C(F)(F)F)ccnc3OC)nc2n1 [pyroxsulam], the “Activity against VERHE” value (VERHE; dosage 5 g of a.i./ha) was 80%.

For Nc1cc(Cl)nc(C(=O)O)c1Cl [aminopyralid], the “Activity against STEME” value (STEME; dosage 150 g of a.i./ha) was 65%.

For COC(=O)c1ccc(CNS(C)(=O)=O)cc1S(=O)(=O)NC(=O)Nc1nc(OC)cc(OC)n1 [mesosulfuron-methyl], the “Activity against MATIN” value (MATIN; dosage 7.5 g of a.i./ha) was 50% and the “Damage to summer wheat” value (summer wheat; dosage 7.5 g of a.i./ha) was 15%.

From patent US8865626B2, “Synergistically active herbicidal agents that are compatible with cultivated plants and contain herbicides from the group of benzoylpyrazoles” (Bayer Cropscience AG, priority 2006, dated 2014)
